{"source": "patent EP0035641B1", "about": "“Cystein derivatives, process for their preparation and medicines containing them” (ALFA FARMACEUTICI S.p.A., priority 1980, dated 1981)", "key": {"[1]": {"tested_on": "durch das Reizmittel hervorgerufene Unterleibsschmerzkrümmungen", "assay": "Writhing test in mice (method of Wilkin et al.)", "type": "in vivo, Mäusen", "details": "Mäuse; for ED50: Mus musculus, po, read-out: ED50 (Dosen, welche eine 50%ige Verminderung der Zusammenziehung herbeizuführen vermögen)", "experimental": "Die schmerzlindernde Wirksamkeit wurde mit Hilfe des »Schmerzkrümmungsversuches« (»writhing test«) an Mäusen im wesentlichen nach der von Wilkin und Mitarbeitern in J. Pharm. Expt. Ther., 133 [1961 ], 409 beschriebenen Versuchsverfahrensweise bewertet. Repräsentative Versuche zeigten, daß die erfindungsgemäßen Verbindungen bei ihrer Verarbreichung in peroralen Dosen von etwa 30 bis 100 mg/kg gegenüber den Blindversuchen eine 50%ige Hemmung der durch das Reizmittel hervorgerufenen Unterleibsschmerzkrümmungen herbeiführten. Bei diesem Versuch zeigte sich, daß die schmerzlindernde Wirkung der erfindungsgemäßen Verbindung N-Acetyl-S-[D-2-(6'-methoxynaphth-2'-yl)-propionyl]-L-cystein (Verbindung der Beispiele 6 und 7) selbst 4 Stunden nach ihrer Verabreichung beträchtlich war."}, "Granulome": {"tested_on": "Granulome", "assay": "Cotton pellet granuloma test (method of Meier et al.)", "type": "in vivo", "text": "Ein weiterer Nachweis der starken entzündungshemmenden Wirkung der erfindungsgemäßen Verbindungen erfolgte mit Hilfe des Granulomwattekügelchenversuches, welcher im wesentlichen wie von R. Meier und Mitarbeitern, Experientia, 6 [1950], 1469 beschrieben durchgeführt wurde. Bei diesem Versuch wurden Granuloma durch Einsetzen eines Wattekügelchens in den intraskapularen Bereich des Versuchtieres gebildet. Die Versuchsergebnisse sind in der folgenden Tabelle 11 zusammengestellt."}, "Carraghenin-Ödem": {"tested_on": "Carraghenin-Ödem", "assay": "Carrageenan-induced oedema test in rats (method of Winter et al.)", "type": "in vivo", "details": "Ratten", "text": "Die entzündungshemmende Wirkung wurde an Hand des Versuches mit dem von Carraghenin hervorgerufenen beziehungsweise induzierten Ödem (Carraghenin-Ödem) an Ratten, welcher im wesentlichen nach der Verfahrensweise von C. A. Winter und Mitarbeitern, J. Pharm. Expt. Ther. […] durchgeführt wurde, bewertet. Die Ergebnisse dieser Versuche sind in der folgenden Tabelle I zusammengestellt."}}, "note": "Read-outs that look alike come from different tables or passages of the source.", "data": [{"smiles": "COc1ccc2cc([C@H](C)C(=O)SC[C@H](NC(C)=O)C(=O)O)ccc2c1", "note": "[Beispiel 6 beziehungs-weise 7, N-Acetyl-S-[D-2-(6'-methoxynaphth-2'-yl)-propionyl]-L-cystein]", "values": [{"measurement": "schmerzlindernde Wirkung", "setting": "[1]; 4 Stunden nach Verabreichung", "value": "beträchtlich"}, {"measurement": "ED50", "setting": "[1]; 0.5 h, nach 30 Minuten", "value": 25, "unit": "mg/kg"}, {"measurement": "ED50", "setting": "[1]; 4 h, nach 4 Stunden", "value": 10, "unit": "mg/kg"}, {"measurement": "Hemmung des Granulomes in %, bezogen auf die Blindversuche", "setting": "Granulome; Perorale Dosis 40 mg/kg", "value": "−28", "unit": "%"}, {"measurement": "Hemmung des Granulomes in %, bezogen auf die Blindversuche", "setting": "Granulome; Perorale Dosis 80 mg/kg", "value": "−49", "unit": "%"}, {"measurement": "Hemmung des Carraghenin-Ödemes in %, bezogen auf die Blindversuche", "setting": "Carraghenin-Ödem; Perorale Dosis 3 mg/kg", "value": "−42", "unit": "%"}, {"measurement": "Hemmung des Carraghenin-Ödemes in %, bezogen auf die Blindversuche", "setting": "Carraghenin-Ödem; Perorale Dosis 6 mg/kg", "value": "−42", "unit": "%"}, {"measurement": "Hemmung des Carraghenin-Ödemes in %, bezogen auf die Blindversuche", "setting": "Carraghenin-Ödem; Perorale Dosis 12 mg/kg", "value": "−45", "unit": "%"}, {"measurement": "Hemmung des Carraghenin-Ödemes in %, bezogen auf die Blindversuche", "setting": "Carraghenin-Ödem; Perorale Dosis 24 mg/kg", "value": "−58", "unit": "%"}]}, {"smiles": "COC(=O)[C@H](CS)NC(=O)[C@@H](C)c1ccc2cc(OC)ccc2c1", "note": "[Beispiel 2, N-[D-2-(6'-Methoxynaphth-2'-yl)-propionyl]-L-cysteinmethylester]", "values": [{"measurement": "Hemmung des Carraghenin-Ödemes in %, bezogen auf die Blindversuche", "setting": "Carraghenin-Ödem; Perorale Dosis 50 mg/kg", "value": "−57", "unit": "%"}]}, {"smiles": "COc1ccc2cc([C@H](C)C(=O)N[C@@H](CS)C(=O)O)ccc2c1", "note": "[Beispiel 4, N-[D-2-(6'-Methoxynaphth-2'-yl)-propionyl]-L-cystein]", "values": [{"measurement": "Hemmung des Granulomes in %, bezogen auf die Blindversuche", "setting": "Granulome; Perorale Dosis 40 mg/kg", "value": "−24", "unit": "%"}, {"measurement": "Hemmung des Granulomes in %, bezogen auf die Blindversuche", "setting": "Granulome; Perorale Dosis 80 mg/kg", "value": "−35", "unit": "%"}]}, {"smiles": "CCC1Cc2cc(CC(=O)N[C@@H](CS)C(=O)O)ccc2O1", "note": "(stereo partly drawn) [Beispiel 3, N-[2-(2'-Äthyl-2',3'-dihydrobenzofuran-5'-yl)-acetyl]-L-cystein]", "values": [{"measurement": "Hemmung des Granulomes in %, bezogen auf die Blindversuche", "setting": "Granulome; Perorale Dosis 40 mg/kg", "value": "−30", "unit": "%"}, {"measurement": "Hemmung des Carraghenin-Ödemes in %, bezogen auf die Blindversuche", "setting": "Carraghenin-Ödem; Perorale Dosis 50 mg/kg", "value": "−48", "unit": "%"}]}]}
